The NIST ThermoML archive (doi:10.1021/je9008206)
± gives the expanded uncertainty stated by the source.

Assays:
[1] = Crystal; DTA
[2] = Molar enthalpy of transition or fusion; details: Crystal; DSC

| Normal melting temperature [1] [°C] | Molar enthalpy of transition or fusion [2] [kJ/mol] | SMILES |
| --- | --- | --- |
| 124.80 ± 0.53 | 13.4 ± 0.86 | O=C1OC(=O)c2c(Cl)cccc21 [3-chlorophthalic anhydride] |
| 94.20 ± 0.53 | 33.1 ± 1 | O=C1OC(=O)c2cc(Cl)ccc21 [4-chlorophthalic anhydride] |
